The source of these data is PMC3210919 (Biochemistry, 2011).

In general, Km refers to the substrate concentration at which the rate is half of its maximum. Broadly, the kcat is the number of substrate molecules converted per active site and unit of time at saturation. The term Vmax denotes the top rate of the reaction or transport when substrate is in excess. In general, kcat/Km refers to the turnover number divided by the Michaelis constant.

“And” between values parts separate entries of the source, which are not always exact repeats. Equal values may be shown once. Read-outs that look alike come from different tables or passages of the source.

Series [1] concerns the target T1, T882A RePC mutant (Rhizobium etli, UniProt Q2K340, T882A).
For series [2], the target named is T2, wild-type RePC (Rhizobium etli, UniProt Q2K340). The class given is biochemical. Particulars: for % kcat of pyruvate carboxylation: phosphoryl donor varied, 0.25 mM acetyl-CoA.
For series [3], the target named is T3, K1119Q RePC mutant (Rhizobium etli, UniProt Q2K340, K1119Q).
Series [4] addresses T2, wild-type RePC. In kind it is biochemical.
Series [5] deals with wild-type RePC (pyruvate carboxylase from R. etli). The series can be described thus: Pyruvate carboxylation activity, malate dehydrogenase coupled assay. The class given is biochemical, Rhizobium etli.
In series [6] the target is T3, K1119Q RePC mutant. Kind of series: HCO3^−-dependent ATPase reaction, K1119Q mutant. The class given is biochemical.
Series [7] concerns the target T2, wild-type RePC. Kind of series: HCO3^−-dependent ATPase activity in the absence of pyruvate. In kind it is biochemical.
Series [8] deals with T1, T882A RePC mutant. This is another data set of the same source.
The target in series [9] is T2, wild-type RePC. In kind it is biochemical. This is another data set of the same source.
Series [10] deals with T2, wild-type RePC. Kind of series: Coupling study: initial rates of oxaloacetate formation at varying pyruvate. To be noted: pyruvate varied; for kcat, oxaloacetate formation: 15 mM HCO3^−.
Series [11] deals with T2, wild-type RePC. The series can be described thus: Coupling study: initial rates of Pi release at varying pyruvate. The class given is biochemical. To be noted: for Ka pyruvate, stimulation of Pi release: 15 mM HCO3^−.
A further series concerns NC(=O)OP(=O)(O)O. Kind of series: purified protein, by the assay type. To be noted: no free biotin, pH 7.5, 25.0 °C.
The mark [12] stands for this setting: wild-type, (+) 10 mM free biotin.
The mark [13] stands for this setting: labelled substrate varied, others saturating, pH 7.5, 25° C, 0.25 mM acetyl-CoA.
Where [14] appears, read: saturating acetyl-CoA and substrates.
Setting [15] is: acetyl-CoA varied, 0.5 mM free Mg^2+, Hill fit eqn (4).
Setting [16] is: acetyl-CoA varied, 1.0 mM free Mg^2+, Hill fit eqn (4).
Setting [17] is: acetyl-CoA varied, 3.0 mM free Mg^2+, Hill fit eqn (4).

As for `CC(=O)OP(=O)(O)O` [Acetyl phosphate], the “% wild-type kcat/Km” value at T882A RePC mutant [1] ((+) 10 mM free biotin) is reported as 40%; at T882A RePC mutant [1] (no free biotin) it was 80%; at K1119Q RePC mutant [3] ((+) 10 mM free biotin), 57%; at K1119Q RePC mutant [3] (no free biotin), 95%. The Km on T882A RePC mutant [1] ((+) 10 mM free biotin) stood at 140 ± 10 µM; at T882A RePC mutant [1] (no free biotin), 220 ± 10 µM; at wild-type RePC [2] (setting [12]), 140 ± 40 µM; on K1119Q RePC mutant [3] ((+) 10 mM free biotin), 370 ± 30 µM; on K1119Q RePC mutant [3] (no free biotin) it was 290 ± 10 µM. Moreover, the turnover number (kcat) on T882A RePC mutant [1] ((+) 10 mM free biotin) is 0.002 ± 0.00017 s⁻¹; on T882A RePC mutant [1] (no free biotin), 0.005 ± 0.00017 s⁻¹; at wild-type RePC [2] (setting [12]), 0.00483 ± 3.3e-05 s⁻¹; at K1119Q RePC mutant [3] ((+) 10 mM free biotin) it was 0.00733 ± 0.00017 s⁻¹; on K1119Q RePC mutant [3] (no free biotin), 0.00783 ± 0.00017 s⁻¹. In addition, on wild-type RePC [2] (pH 7.5, 25° C), the “% kcat of pyruvate carboxylation” value came out at 0.1%.

For the molecule `NC(=O)OP(=O)(O)O` [Carbamoyl phosphate], the “% wild-type kcat/Km” value is 920% at T882A RePC mutant [1] ((+) 10 mM free biotin), 750% at T882A RePC mutant [1] (no free biotin), 45% at K1119Q RePC mutant [3] ((+) 10 mM free biotin) and 17% on K1119Q RePC mutant [3] (no free biotin). In addition, the “% kcat of pyruvate carboxylation” value on wild-type RePC [2] (pH 7.5, 25° C) was found to be 0.6%. Also, the kcat at wild-type RePC [2] (wild-type, no free biotin, pH 7.5, 25° C, […] MgADP, 0.25 mM acetyl-CoA (Table 7)) is 0.04 ± 0.0017 s⁻¹.

Regarding `Nc1ncnc2c1ncn2[C@@H]1O[C@H](COP(=O)(O)OP(=O)(O)O)[C@@H](O)[C@H]1O` [MgADP], at wild-type RePC [4] (MgADP varied, pH 7.5, 25° C, 0.25 mM acetyl-CoA), the “% kcat of pyruvate carboxylation” value worked out at 0.2%.

Consider `Nc1ncnc2c1ncn2[C@@H]1O[C@H](COP(=O)(O)OP(=O)(O)OP(=O)(O)O)[C@@H](O)[C@H]1O` [MgATP], for which the Km in series [5] (setting [13]) was found to be 145 ± 9 µM. Moreover, the kcat in [5] (setting [13]) was 396 ± 10 ^d min^−1; at K1119Q RePC mutant [6] (no free biotin), 0.00137 ± 1.7e-05 s⁻¹; at wild-type RePC [7] (wild-type, no free biotin, pH 7.5, 25° C, 15 mM HCO3^−, 7.5 mM MgCl2, 0.25 mM acetyl-CoA), 0.043 ± 0.0015 s⁻¹; on T882A RePC mutant [8] (no free biotin) it was 0.233 ± 0.033 s⁻¹. For the same molecule, the “% wild-type kcat/Km” value on K1119Q RePC mutant [6] ((+) 10 mM free biotin) is on record as 40%; at K1119Q RePC mutant [6] (no free biotin), 0.06%; on T882A RePC mutant [8] ((+) 10 mM free biotin), 260%; at T882A RePC mutant [8] (no free biotin), 225%. Also, the “% kcat of pyruvate carboxylation” value at wild-type RePC [7] (MgATP varied, pH 7.5, 25° C, 0.25 mM acetyl-CoA) was determined as 0.6%.

As for `[Mg+2]` [Mg^2+], the “inhibition of the MgADP phosphorylation reaction by Mg^2+” value on wild-type RePC [2] (up to 11 mM Mg^2+) is recorded as “no inhibition”. Moreover, the “concentration of free Mg^2+ that inhibited pyruvate carboxylation” value in [5] is > 7 mM. Also, the “fold increase in kcat” value in [5] (Mg^2+ increased from 0.5 to 3 mM, acetyl-CoA varied) is reported as 4.9 fold. Further, the “Ka for Mg^2+ for the effect on Vmax” value in series [5] (estimated from replot of apparent 1/Vmax vs. 1/[Mg^2+], pyruvate varied) was “≈ 40 mM”. Besides, at wild-type RePC [7], the “concentration of free Mg^2+ that inhibited MgATP-cleavage” value is reported as > 7 mM.

On to `CC(=O)SCCNC(=O)CCNC(=O)[C@H](O)C(C)(C)COP(=O)(O)OP(=O)(O)OC[C@H]1O[C@@H](n2cnc3c(N)ncnc32)[C@H](O)[C@@H]1OP(=O)(O)O` [acetyl-CoA, acetyl-coenzyme A, reference compound], for which the “kcat (specific activity), (+) acetyl-CoA” value at wild-type RePC [9] (setting [14]) stood at 0.15 ± 0.00067 s⁻¹; at wild-type RePC [4] (setting [14]), 0.0139 ± 8.3e-05 s⁻¹; at wild-type RePC [2] (setting [14]), 0.04 ± 0.0017 s⁻¹; in series [5] (setting [14]) it was 11.7 ± 0.333 s⁻¹; on wild-type RePC [7] (setting [14]), 0.043 ± 0.0015 s⁻¹. Besides, the “% rate (−) acetyl-CoA compared to the specific activity in the presence of acetyl-CoA” value is recorded as 67% at wild-type RePC [9] (saturating substrates); 18% at wild-type RePC [4] (saturating substrates); 100% on wild-type RePC [2] (saturating substrates); 9% in series [5] (saturating substrates); 22% on wild-type RePC [7] (saturating substrates). Also, the “decrease in rate caused by lack of acetyl-CoA” value on wild-type RePC [4] (full reverse reaction) was 78%; on wild-type RePC [7] (MgATP hydrolysis), 82%. Also, the “effect of acetyl-CoA on the rate of MgADP phosphorylation by carbamoyl phosphate” value at wild-type RePC [2] is listed as “no effect”. The “n acetyl-CoA (Hill coefficient)” value is recorded as 2.0 ± 0.3 in series [5] (acetyl-CoA varied, 0.5 mM free Mg^2+); 2.8 ± 0.5 in [5] (acetyl-CoA varied, 1.0 mM free Mg^2+); 2.6 ± 0.2 in [5] (acetyl-CoA varied, 3.0 mM free Mg^2+). The “Ka acetyl-CoA” value in series [5] (setting [15]) is 38 ± 2 µM; in [5] (setting [16]), 26 ± 2 µM; in [5] (setting [17]) it was 10 µM and 10.0 ± 0.4 µM. Moreover, the Vmax is 1.16 ± 0.07 µmol/mg/min in series [5] (setting [15]); 1.39 ± 0.06 µmol/mg/min in [5] (setting [16]); 5.7 ± 0.1 µmol/mg/min in [5] (setting [17]); 2.59 ± 0.08 µmol/mg/min in series [5] (acetyl-CoA varied, […] free Mg^2+, Hill fit eqn (4)). Moreover, the “overall fold decrease in the Ka for acetyl-CoA” value in series [5] (addition of 3.0 mM free Mg^2+) was determined as 3.8 fold.

Regarding `O=C(O)CCCC[C@@H]1SC[C@@H]2NC(=O)N[C@@H]21` [biotin], the “fold increase in the catalytic efficiency” value at K1119Q RePC mutant [6] (10 mM free biotin added) is given as ~1000 fold. Moreover, at K1119Q RePC mutant [6] (addition of 10 mM biotin), the “fold decrease in the Km for MgATP” value was 35 fold.

For `O=C(O)CC(=O)C(=O)O` [oxaloacetate], the “% kcat of pyruvate carboxylation” value on wild-type RePC [9] (saturating substrates and activators, 1 mM oxamate, pH 7.5, 25° C) worked out at 2.0%.

As for `NC(=O)C(=O)O` [oxamate], the “fold stimulation of the rate of oxaloacetate decarboxylation compared to the full reverse reaction” value at wild-type RePC [9] (saturating oxamate) is 11 fold.

Turning to `CC(=O)C(=O)O` [pyruvate], the Km in [5] (setting [13]) turned out to be 150 ± 10 µM; in series [5] (read-out: Km pyruvate, pyruvate varied, 0.7 mM free Mg^2+), 3100 ± 200 µM; in series [5] (read-out: Km pyruvate, pyruvate varied, 3.0 mM free Mg^2+), 2650 ± 40 µM; in series [5] (read-out: Km pyruvate, pyruvate varied, 5.0 mM free Mg^2+) it was 150 ± 10 µM; in [5] (read-out: Km pyruvate, pyruvate varied, […] free Mg^2+) it was 3000 ± 400 µM. Besides, in series [5] (setting [13]), the kcat is reported as 440 ± 8 ^d min^−1. Moreover, the Vmax in series [5] (pyruvate varied, 0.7 mM free Mg^2+) came to 0.69 ± 0.02 µmol/mg/min; in series [5] (pyruvate varied, 3.0 mM free Mg^2+) it was 3.18 ± 0.08 µmol/mg/min; in series [5] (pyruvate varied, 5.0 mM free Mg^2+), 3.98 ± 0.04 µmol/mg/min; in series [5] (pyruvate varied, […] free Mg^2+), 1.41 ± 0.01 µmol/mg/min. Also, the “Km pyruvate (oxaloacetate formation) without acetyl-CoA, % of (+) acetyl-CoA” value at wild-type RePC [10] is on record as 2%. Further, the “kcat oxaloacetate formation without acetyl-CoA, % of (+) acetyl-CoA” value on wild-type RePC [10] is given as 0.5%. The “kcat/Km (oxaloacetate formation) without acetyl-CoA, % of (+) acetyl-CoA” value at wild-type RePC [10] was 24%. Moreover, the “kcat, oxaloacetate formation” value at wild-type RePC [10] ((+) 0.25 mM acetyl-CoA) is 5.17 ± 0.13 s⁻¹; on wild-type RePC [10] ((−) acetyl-CoA) it was 0.0253 ± 0.0005 s⁻¹. In addition, the “Ka pyruvate, stimulation of Pi release” value on wild-type RePC [11] ((+) 0.25 mM acetyl-CoA) is reported as 0.16 ± 0.01 mM; on wild-type RePC [11] ((−) acetyl-CoA), 0.048 ± 0.008 mM. In addition, the “fold increase of the rates of Pi release from the BC domain” value at wild-type RePC [11] (low concentrations of pyruvate, absence of acetyl-CoA) is 120-175 fold. Further, the “fold stimulation of the rate of Pi release from the BC domain” value at wild-type RePC [11] (lowest concentrations of pyruvate, presence of acetyl-CoA) is 300-500 fold. Also, the “Ka pyruvate (Pi release) without acetyl-CoA, % of (+) acetyl-CoA” value on wild-type RePC [11] (pyruvate varied) was 30%. Also, on wild-type RePC [11] (pyruvate varied), the “kcat Pi release without acetyl-CoA, % of (+) acetyl-CoA” value came out at 5.8%. The “kcat/Ka (Pi release) without acetyl-CoA, % of (+) acetyl-CoA” value on wild-type RePC [11] (pyruvate varied) worked out at 19%. For the same molecule, the “limiting value of the ratio oxaloacetate formation / Pi release” value on wild-type RePC [11] (saturating pyruvate and acetyl-CoA) was 1.08. The “fold increase in the rate of Pi release” value on wild-type RePC [11] (sub-saturating concentrations of pyruvate) is ~300 fold.

For the molecule “K1119Q RePC mutant (Rhizobium etli CFN 42; K1119Q)”, in the series with NC(=O)OP(=O)(O)O (other: K1119Q), the Km amounted to 880 ± 70 µM.

Regarding “T882A RePC mutant (Rhizobium etli CFN 42; T882A)”, in the series on NC(=O)OP(=O)(O)O (other: T882A), the Km stood at 3400 ± 500 µM, the kcat worked out at 0.4 s⁻¹ and the kcat/Km was 117 M⁻¹ s⁻¹.
